Measured values from US6814968B1, “Inhibition of viral infection and spread with viral and RhoA-derived peptides” (priority 1998, dated 2004).
“Also recorded” adds a separate entry of the source.

Legend:
[1] = tested on: RSV; experiment: RSV plaque inhibition assay: peptide pre-incubated with RSV, added to HEp-2 cells; format: cell-based, respiratory syncytial virus (A2 strain); details: 3 days; for plaque formation: peptide 5 mg/ml and 10 mg/ml incubated 1 h with RSV, vs PBS controls
[2] = tested on: RSV; experiment: Cell-to-cell spread / syncytium formation of RSV in HEp-2 monolayers, peptide added to cells; format: cell-based, respiratory syncytial virus
[3] = tested on: RSV; experiment: RSV infection of BALB/c mice, intranasal peptide treatment; format: in vivo
[4] = tested on: parainfluenza virus 3 (PIV3); experiment: Syncytium formation by parainfluenza virus 3 in HEp-2 cells; format: cell-based
Description: RhoA77-95 was also added to HEp-2 cells in conjunction with parainfluenza virus 3 (PIV3) as infectious agent, as well as MT-2 cells, in conjunction with human immunodeficiency virus 1 (HIV-1) as infectious agent. Both viruses are known to cause the formation of syncytia during infection.

[5] = tested on: HIV; experiment: MAGI cell assay of HIV entry; format: cell-based; details: β-galactosidase activity as endpoint
[6] = tested on: HIV-1
[7] = tested on: RSV; format: cell-based, respiratory syncytial virus; details: protein added to RSV prior to infection of HEp-2 cells
[8] = 500 μg intranasally at the time of RSV challenge, 10^7 pfu RSV
[9] = 500 μg intranasally on day 4 after RSV infection, vs PBS-treated controls
[10] = 10 amino acid peptides added to HEp-2 cell medium

Substance: RhoA77-95: 19 amino acid peptide comprising the sequence of amino acids 77-95 of the RhoA protein (TDVILMCFSIDSPDSLENI; UniProt P61586 77-95, looked up, fragment)
- antigen-positive cells by immunoperoxidase staining ([1]; RSV-specific antibody): no antigen-positive cells were found
- plaque formation [1]: completely blocked; also recorded: inhibited; also recorded: inhibit plaque formation
- syncytia formation ([2]; peptide 5 mg/ml added 20 or 24 hours post-adsorption, HEp-2, evaluated after three days): inhibited syncytia formation
- number of virus infected cells ([2]; peptide 5 mg/ml added 4 hours after RSV adsorption, HEp-2, evaluated after three days): reduced the number of virus infected cells and limited infection to single cells
- cell-to-cell spread of RSV ([2]; peptide added after RSV adsorption, HEp-2): inhibited
- illness [3, 8]: no discernable illness
- weight loss [3, 8]: no discernable illness or weight loss
- signs of illness [3, 9]: markedly diminished
- weight loss [3, 9]: slight reduction
- inhibition of RSV in vivo ([3]; administered to mice): inhibited RSV in vivo
- Day 5 RSV Titer (Log10 pfu/gram lung ± S.D.) ([3]; peptide treatment on day 0 (time of challenge), lung plaque assay): 3.7 ± 0.3 Log10 pfu/gram lung
- Day 5 RSV Titer (Log10 pfu/gram lung ± S.D.) ([3]; peptide treatment on day 4, lung plaque assay): 4.7 ± 0.3 Log10 pfu/gram lung
- decrease of RSV titers in lung ([3]; treatment at the time of infection, day 5 lungs): over 100 fold
- reduction of RSV titers in lung ([3]; treatment on day 4, day 5 lungs): more than 10 fold
- syncytium formation by PIV3 [4]: inhibited
- HIV virus entry into cells [5]: Inhibition
- HIV-1 replication (RT and p24 assays) [6]: inhibited
- HIV-1 virus entry into / infection of MT-2 cells [6]: inhibited
- reverse transcriptase activity in culture supernatants [6]: undetectable

Substance: RhoA67-85: 19 amino acid peptide comprising RhoA amino acids 67-85 (DRLRPLSYPDTDVILMCFS; UniProt P61586 67-85, looked up, fragment)
- plaque formation [1]: no inhibition
- destruction of infected MT-2 cells [6]: completely destroyed by day 14
- syncytium formation by HIV-1 [6]: visible syncytia by day 4

Substance: RhoA80-89: 10 amino acid peptide comprising amino acid residues 80-89 of the RhoA protein sequence (ILMCFSIDSP; UniProt P61586 80-89, looked up, fragment)
- RSV entry into HEp-2 cells [2, 10]: completely blocked

Substance: whole RhoA protein: whole RhoA protein, 193 amino acid small GTP-binding protein
- number and size of plaques [7]: increased

Substance: RhoA87-105: 19 amino acid peptide comprising RhoA amino acids 87-105 (DSPDSLENIPEKWTPEVKH; UniProt P61586 87-105, looked up, fragment)
- plaque formation [1]: no inhibition
- destruction of infected MT-2 cells [6]: completely destroyed by day 14
- syncytium formation by HIV-1 [6]: visible syncytia by day 4

Substance: RhoA77-86: 10 amino acid peptide, RhoA residues 77-86 (TDVILMCFSI; UniProt P61586 77-86, looked up, fragment)
- syncytium formation [2, 10]: did not block

Substance: RhoA83-92: 10 amino acid peptide, RhoA residues 83-92 (CFSIDSPDSL; UniProt P61586 83-92, looked up, fragment)
- syncytium formation [2, 10]: did not block
